Results on three molecules are retold here after ChEMBL document CHEMBL4251715, “Hepatoprotective Dibenzocyclooctadiene and Tetrahydrobenzocyclooctabenzofuranone Lignans from Kadsura longipedunculata” (2018).

This test deals with HepG2. Description: Hepatoprotective activity against APAP-induced toxicity in human HepG2 cells assessed as cell survival rate at 10 uM after 48 hrs by MTT assay relative to control. The test is classed as functional. Particulars: HepG2, 48 h, read-out: Survival. For orientation: Tetrazolium dyes change colour on reduction, which living cells bring about.
Consider `COC1=C(OC)C(=O)[C@]23COc4c5c(cc(c42)[C@H](OC(=O)c2ccccc2)[C@H](C)[C@](C)(O)CC3=C1)OCO5`, for which the viability at 10 µM is 52.2%.

Take `COC1=C(OC)C(=O)[C@]23COc4c5c(cc(c42)[C@H](OC(C)=O)[C@H](C)[C@H](C)CC3=C1)OCO5`: the viability at 10 µM came out at 50.2%.

Take `COC(=O)c1cc(OC)c2c(c1-c1c(CO)cc(OC)c3c1OCO3)OCO2` [BICYCLOL]: the viability at 10 µM stood at 49%.
